ChEMBL document CHEMBL4417631, “Oral peptide inhibitors of interleukin-23 receptor and their use to treat inflammatory bowel diseases” (2017)
pIC50: −log10 of the molar value. Where a SMILES comes first, the peptide text is derived from it.

Target: T1, Interleukin-23 receptor (Homo sapiens, UniProt Q5VWK5)
T1 sequence (Q5VWK5 whole entry): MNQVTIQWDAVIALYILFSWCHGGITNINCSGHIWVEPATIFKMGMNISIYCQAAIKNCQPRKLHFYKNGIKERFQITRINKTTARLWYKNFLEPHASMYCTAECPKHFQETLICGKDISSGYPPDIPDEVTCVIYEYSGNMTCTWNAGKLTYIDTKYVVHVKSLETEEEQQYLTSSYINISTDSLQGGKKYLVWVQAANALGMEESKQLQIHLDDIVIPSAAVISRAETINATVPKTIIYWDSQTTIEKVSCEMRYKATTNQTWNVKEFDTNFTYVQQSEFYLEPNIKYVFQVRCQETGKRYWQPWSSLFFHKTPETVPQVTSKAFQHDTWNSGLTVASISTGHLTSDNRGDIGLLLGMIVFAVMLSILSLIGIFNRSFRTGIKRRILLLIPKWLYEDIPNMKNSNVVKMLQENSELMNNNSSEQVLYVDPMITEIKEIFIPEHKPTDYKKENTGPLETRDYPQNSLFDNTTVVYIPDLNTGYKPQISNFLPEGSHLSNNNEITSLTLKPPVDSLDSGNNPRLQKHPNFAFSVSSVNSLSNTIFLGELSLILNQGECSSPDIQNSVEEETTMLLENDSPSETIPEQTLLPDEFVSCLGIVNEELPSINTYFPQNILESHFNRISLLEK
Experiment: Inhibition of interleukin-23 binding to human interleukin-23 receptor incubated for 2 hrs by competitive binding ELISA

| Structure (SMILES) | pIC50 |
| --- | --- |
| CC(=O)N[C@@H](CS)C(=O)N[C@@H](C)C(=O)N[C@@H](CC(=O)O)C(=O)N[C@@H](Cc1c[nH]c2ccccc12)C(=O)N[C@H](C(=O)N[C@@H](CS)C(=O)N[C@@H](Cc1ccc(O)cc1)C(=O)N[C@@H](Cc1c[nH]c2ccccc12)C(=O)N[C@@H](Cc1cnc[nH]1)C(=O)N[C@@H](Cc1ccccc1)C(=O)N[C@@H](Cc1cnc[nH]1)C(=O)N[C@@H](CCC(N)=O)C(=O)N[C@@H](CC(C)C)C(=O)N[C@@H](CCCNC(=N)N)C(=O)N[C@@H](CC(=O)O)C(=O)N[C@@H](C)C(N)=O)C(C)C (Ac-CADWVCYWHFHQLRDA-NH2) | 6.00 to 6.30 |
| CC(=O)N[C@@H](CS)C(=O)N[C@@H](C)C(=O)N[C@@H](CC(=O)O)C(=O)N[C@@H](Cc1c[nH]c2ccccc12)C(=O)N[C@H](C(=O)N[C@@H](CS)C(=O)N[C@@H](Cc1ccc(O)cc1)C(=O)N[C@@H](Cc1c[nH]c2ccccc12)C(=O)N[C@@H](Cc1cnc[nH]1)C(=O)N[C@@H](CCC(=O)O)C(=O)N[C@@H](Cc1ccccc1)C(=O)NCC(N)=O)C(C)C | 6.00 to 6.30 |
| CC(=O)N[C@@H](CS)C(=O)N[C@@H](C)C(=O)N[C@@H](CC(=O)O)C(=O)N[C@@H](Cc1c[nH]c2ccccc12)C(=O)N[C@H](C(=O)N[C@@H](CS)C(=O)N[C@@H](Cc1ccc(O)cc1)C(=O)N[C@@H](Cc1c[nH]c2ccccc12)C(=O)N[C@@H](Cc1cnc[nH]1)C(=O)N[C@@H](CCCNC(=N)N)C(=O)N[C@@H](CS)C(=O)NCC(=O)N[C@@H](Cc1c[nH]c2ccccc12)C(=O)N[C@@H](Cc1c[nH]c2ccccc12)C(=O)NCC(=O)N[C@@H](CS)C(N)=O)C(C)C (Ac-CADWVCYWHRCGWWGC-NH2) | < 6.00 |
| CC(=O)N[C@@H](CS)C(=O)N[C@@H](C)C(=O)N[C@@H](CC(=O)O)C(=O)N[C@@H](Cc1c[nH]c2ccccc12)C(=O)N[C@H](C(=O)N[C@@H](CS)C(=O)N[C@@H](Cc1ccc(O)cc1)C(=O)N[C@@H](Cc1cccc2ccccc12)C(=O)N(C)[C@@H](Cc1cnc[nH]1)C(=O)N[C@H](C)C(=O)N[C@@H](Cc1ccccc1)C(=O)NC(C)(C)C(N)=O)C(C)C | < 6.00 |
| CC(=O)N[C@H](C(=O)N[C@@H](CCC(N)=O)C(=O)N[C@H](C(=O)N[C@@H](Cc1c[nH]c2ccccc12)C(=O)N[C@@H](CCC(N)=O)C(=O)N[C@H](C(=O)N[C@@H](Cc1ccc(C#N)cc1)C(=O)N[C@@H](Cc1ccc2ccccc2c1)C(=O)N[C@@](C)(CCCN)C(=O)N[C@@H](CCC(=O)O)C(=O)N[C@@H](CC(N)=O)C(=O)NCC(N)=O)C(C)(C)S)[C@@H](C)O)C(C)(C)S | 6.00 to 7.00 |
| CC(C)[C@H](NC(=O)[C@H](Cc1c[nH]c2ccccc12)NC(=O)[C@H](CC(=O)O)NC(=O)[C@H](C)NC(=O)[C@@H](N)CS)C(=O)N[C@@H](CS)C(=O)N[C@@H](Cc1ccc(O)cc1)C(=O)N[C@@H](Cc1cccc2ccccc12)C(=O)N[C@@H](Cc1cnc[nH]1)C(=O)N[C@H](C(=O)N(C)[C@@H](Cc1ccccc1)C(N)=O)[C@@H](C)O | < 6.00 |
| CC(=O)N[C@@H](CS)C(=O)N[C@@H](C)C(=O)N[C@@H](CC(=O)O)C(=O)N[C@@H](Cc1c[nH]c2ccccc12)C(=O)N[C@H](C(=O)N[C@@H](CS)C(=O)N[C@@H](Cc1ccc(O)cc1)C(=O)N[C@@H](Cc1c[nH]c2ccccc12)C(=O)N[C@@H](Cc1cnc[nH]1)C(=O)N[C@H](C(=O)N[C@@H](Cc1ccccc1)C(=O)N[C@@H](CC(=O)O)C(=O)N[C@@H](CCCCNC(=O)COCC(=O)NCCCC[C@H](NC(=O)[C@H](CC(=O)O)NC(=O)[C@H](Cc1ccccc1)NC(=O)[C@@H](NC(=O)[C@H](Cc1cnc[nH]1)NC(=O)[C@H](Cc1c[nH]c2ccccc12)NC(=O)[C@H](Cc1ccc(O)cc1)NC(=O)[C@H](CS)NC(=O)[C@@H](NC(=O)[C@H](Cc1c[nH]c2ccccc12)NC(=O)[C@H](CC(=O)O)NC(=O)[C@H](C)NC(=O)[C@H](CS)NC(C)=O)C(C)C)[C@@H](C)O)C(=O)O)C(=O)O)[C@@H](C)O)C(C)C | < 5.00 |
| CC(C)[C@H](NC(=O)[C@H](Cc1c[nH]c2ccccc12)NC(=O)[C@@H](NC(=O)[C@H](Cc1cnc[nH]1)NC(=O)[C@@H](N)CS)[C@@H](C)O)C(=O)N[C@@H](CS)C(=O)N[C@@H](Cc1ccc(O)cc1)C(=O)N[C@@H](Cc1c[nH]c2ccccc12)C(=O)N[C@@H](Cc1cnc[nH]1)C(=O)N[C@@H](CCC(=O)O)C(=O)N[C@@H](Cc1ccccc1)C(=O)N[C@@H](CO)C(N)=O (H-CHTWVCYWHEFS-NH2) | < 6.00 |
| CC(=O)NCCCC[C@H](NC(=O)[C@](C)(CCCCN)NC(=O)[C@H](Cc1ccc2ccccc2c1)NC(=O)[C@H](Cc1cc(F)cc(F)c1)NC(=O)[C@@H](NC(=O)[C@H](CCC(N)=O)NC(=O)[C@H](Cc1c[nH]c2ccccc12)NC(=O)[C@@H](NC(=O)[C@H](CCC(N)=O)NC(=O)[C@@H](NC(C)=O)C(C)(C)S)[C@@H](C)O)C(C)(C)S)C(=O)N[C@@H](CC(N)=O)C(=O)NCC(N)=O | 6.00 to 7.00 |
| CC(C)[C@H](NC(=O)[C@H](Cc1c[nH]c2ccccc12)NC(=O)[C@H](CC(N)=O)NC(=O)[C@H](CO)NC(=O)[C@@H](N)CS)C(=O)N[C@@H](CS)C(=O)N[C@@H](Cc1ccc(O)cc1)C(=O)N[C@@H](Cc1c[nH]c2ccccc12)C(=O)N[C@@H](Cc1cnc[nH]1)C(=O)N[C@H](C(=O)N[C@@H](Cc1ccc(O)cc1)C(=O)NCC(N)=O)[C@@H](C)O (H-CSNWVCYWHTYG-NH2) | > 6.30 |

Now from value to compound:

| pIC50 | Structure (SMILES) |
| --- | --- |
| 6.00 to 6.30 | C[C@@H](O)[C@H](NC(=O)[C@H](CC(=O)O)NC(=O)[C@@H](N)CS)C(=O)N[C@@H](Cc1c[nH]c2ccccc12)C(=O)N[C@@H](CCCCN)C(=O)N[C@@H](CS)C(=O)N[C@@H](Cc1ccc(O)cc1)C(=O)N[C@@H](Cc1c[nH]c2ccccc12)C(=O)N[C@@H](Cc1cnc[nH]1)C(=O)N[C@@H](CCCNC(=N)N)C(=O)N[C@@H](CCC(N)=O)C(=O)N[C@@H](CO)C(N)=O (H-CDTWKCYWHRQS-NH2) |
| 5.00 to 6.00 | CC(=O)N[C@@H](C)C(=O)N[C@@H](CS)C(=O)N[C@@H](CC(=O)O)C(=O)N[C@@H](Cc1c[nH]c2ccccc12)C(=O)N[C@H](C(=O)N[C@H](C(=O)N[C@@H](Cc1ccc(O)cc1)C(=O)N[C@@H](Cc1c[nH]c2ccccc12)C(=O)N[C@@H](CCCNC(=N)N)C(=O)N[C@@H](CCCCN)C(=O)N[C@@H](Cc1ccccc1)C(=O)NCC(=O)NCCOCC(=O)N[C@H](CCCCN)C(N)=O)C(C)(C)S)C(C)C |
| < 6.00 | CC(=O)N[C@@H](CS)C(=O)N[C@@H](CCC(N)=O)C(=O)N[C@H](C(=O)N[C@@H](Cc1c[nH]c2ccccc12)C(=O)N[C@@H](CCC(N)=O)C(=O)N[C@@H](CS)C(=O)N[C@@H](Cc1ccc(O)cc1)C(=O)N[C@@H](Cc1c[nH]c2ccccc12)C(=O)N(C)[C@@H](CCCNC(=N)N)C(=O)N[C@@H](CCC(=O)O)C(=O)N[C@@H](CC(N)=O)C(=O)NCC(=O)NCCOCC(=O)N[C@H](CCCCN)C(N)=O)[C@@H](C)O |
| < 4.52 | N=C(N)NCCC[C@H](NC(=O)[C@H](Cc1c[nH]c2ccccc12)NC(=O)[C@H](Cc1ccc(O)cc1)NC(=O)[C@@H]1CCSCc2ccc(cc2)C(=O)N[C@@H](CCC(N)=O)C(=O)N[C@@H](CC(=O)O)C(=O)N[C@@H](Cc2c[nH]c3ccccc23)C(=O)N[C@@H](CCC(N)=O)C(=O)N1)C(=O)N[C@@H](CCC(=O)O)C(=O)N[C@@H](CC(N)=O)C(=O)NCC(=O)NCCOCC(=O)N[C@H](CCCCN)C(N)=O |
| < 4.52 | CC(=O)N[C@@H](CS)C(=O)N[C@@H](C)C(=O)N[C@@H](CC(=O)O)C(=O)N[C@@H](Cc1c[nH]c2ccccc12)C(=O)N[C@H](C(=O)N[C@@H](CS)C(=O)N[C@@H](Cc1ccc(O)cc1)C(=O)N[C@@H](Cc1ccc(-c2ccccc2)cc1)C(=O)N[C@@H](CCCN)C(=O)N[C@@H](CN)C(=O)N[C@@H](Cc1ccccc1)C(=O)NCC(=O)NCCOCC(=O)N[C@H](CCCCN)C(N)=O)C(C)C |
